{
  "source": "paper PMC9956102",
  "about": "“Structural Insights on Hyp-Gly-Containing Peptides as Antiplatelet Compounds through Topomer CoMFA and CoMSIA Analysis” (Foods, 2023)",
  "note": "Where a name gives a salt, the structure may show the parent alone. Peptide text beside a SMILES is read from it.",
  "data": [
    {"tested_on": "ADP-induced platelet aggregation", "assay": "not given", "type": "cell-based, rat", "settings": "not given", "protocol": "The platelet was isolated from rat aorta blood and mixed with sodium citrate (1:9, v/v) as previously described with some modifications. Briefly, anticoagulated blood was centrifuged (50× g, 10 min) to obtain platelet-rich plasma (PRP). The residue was centrifuged at 750× g for 10 min to collect the platelet-poor plasma (PPP), and PRP was diluted to 2–3 × 10^8 with PPP.\nInhibition of platelet aggregation induced by ADP was measured with a four-channel aggregometer as previously described. Aliquots of 270 μL of PRP were incubated with 30 μL of PPP or peptides with different concentrations at 37 °C for 5 min. After incubation, platelet aggregation was induced by adding 30 μL of ADP (0.1 mM). The platelet aggregation at 5 min was recorded, and the inhibition rate was calculated as follows. Inhibition of platelet aggregation (%) = [1 − platelet aggregation (sample)/platelet aggregation (control)] × 100\nThe IC50 value of platelet aggregation was calculated by Graphpad Prism 6.0.", "units": {"IC50": "µM"}, "values": [
      {"molecule": "N[C@@H](CC(=O)O)C(=O)N1C[C@H](O)C[C@H]1C(=O)NCC(=O)N[C@@H](CCC(=O)O)C(=O)O", "note": "[DOGE] (HELM PEPTIDE1{D.[Hyp].G.E}$$$$V2.0)", "IC50": 661},
      {"molecule": "N[C@@H](CCC(=O)O)C(=O)N1C[C@H](O)C[C@H]1C(=O)NCC(=O)N[C@@H](CCC(=O)O)C(=O)O", "note": "[EOGE, Glu-Hyp-Gly-Glu] (HELM PEPTIDE1{E.[Hyp].G.E}$$$$V2.0)", "IC50": 390},
      {"molecule": "N[C@@H](CCC(=O)O)C(=O)N1C[C@H](O)C[C@H]1C(=O)NCC(=O)O", "note": "[EOG] (HELM PEPTIDE1{E.[Hyp].G}$$$$V2.0; N-terminus and C-terminus assumed)", "IC50": 395},
      {"molecule": "NCC(=O)N[C@@H](CCC(=O)O)C(=O)N1C[C@H](O)C[C@H]1C(=O)NCC(=O)O", "note": "[GEOG] (HELM PEPTIDE1{G.E.[Hyp].G}$$$$V2.0)", "IC50": 878},
      {"molecule": "NCC(=O)N1C[C@H](O)C[C@H]1C(=O)N1C[C@H](O)C[C@H]1C(=O)NCC(=O)N1CCC[C@H]1C(=O)N[C@@H](CCC(N)=O)C(=O)O", "note": "[GOOGPQ] (HELM PEPTIDE1{G.[Hyp].[Hyp].G.P.Q}$$$$V2.0; N-terminus and C-terminus assumed)", "IC50": 2080},
      {"molecule": "CSCC[C@H](NC(=O)[C@@H]1CCCN1C(=O)CNC(=O)[C@@H]1CCCN1C(=O)[C@@H]1C[C@@H](O)CN1C(=O)CN)C(=O)O", "note": "[GOPGPM] (HELM PEPTIDE1{G.[Hyp].P.G.P.M}$$$$V2.0; N-terminus and C-terminus assumed)", "IC50": 5340},
      {"molecule": "O=C(O)C[C@H](NC(=O)CNC(=O)[C@@H]1C[C@@H](O)CN1)C(=O)O", "note": "[OGD] (HELM PEPTIDE1{[Hyp].G.D}$$$$V2.0; N-terminus and C-terminus assumed)", "IC50": 435},
      {"molecule": "O=C(O)CC[C@H](NC(=O)CNC(=O)[C@@H]1C[C@@H](O)CN1)C(=O)O", "note": "[OGE] (HELM PEPTIDE1{[Hyp].G.E}$$$$V2.0; N-terminus and C-terminus assumed)", "IC50": 620},
      {"molecule": "CSCC[C@H](NC(=O)[C@@H]1C[C@@H](O)CN1C(=O)CNC(=O)[C@@H]1C[C@@H](O)CN1)C(=O)NCC(=O)O", "note": "[OGOMG] (HELM PEPTIDE1{[Hyp].G.[Hyp].M.G}$$$$V2.0; N-terminus and C-terminus assumed)", "IC50": 1490},
      {"molecule": "O=C(NCC(=O)N1CCC[C@H]1C(=O)O)[C@@H]1C[C@@H](O)CN1", "note": "[OGP] (HELM PEPTIDE1{[Hyp].G.P}$$$$V2.0; N-terminus and C-terminus assumed)", "IC50": 506},
      {"molecule": "NC(=O)CC[C@H](NC(=O)CNC(=O)[C@@H]1C[C@@H](O)CN1)C(=O)O", "note": "[OGQ] (HELM PEPTIDE1{[Hyp].G.Q}$$$$V2.0; N-terminus and C-terminus assumed)", "IC50": 760},
      {"molecule": "C[C@H](NC(=O)[C@H](CO)NC(=O)CNC(=O)[C@@H]1C[C@@H](O)CN1)C(=O)O", "note": "[OGSA] (HELM PEPTIDE1{[Hyp].G.S.A}$$$$V2.0)", "IC50": 630},
      {"molecule": "O=C(O)CC[C@H](NC(=O)[C@H](CO)NC(=O)CNC(=O)[C@@H]1C[C@@H](O)CN1)C(=O)O", "note": "[OGSE] (HELM PEPTIDE1{[Hyp].G.S.E}$$$$V2.0)", "IC50": 558},
      {"molecule": "O=C(O)CNC(=O)[C@@H]1C[C@@H](O)CN1", "note": "[OG] (HELM PEPTIDE1{[Hyp].G}$$$$V2.0)", "IC50": 1420},
      {"molecule": "O=C(O)CC[C@H](NC(=O)CNC(=O)[C@@H]1C[C@@H](O)CN1C(=O)[C@H](CCC(=O)O)NC(=O)CNC(=O)[C@@H]1CCCN1)C(=O)O", "note": "[PGEOGE] (HELM PEPTIDE1{P.G.E.[Hyp].G.E}$$$$V2.0; N-terminus and C-terminus assumed)", "IC50": 317},
      {"molecule": "O=C(O)CC[C@H](NC(=O)CNC(=O)[C@@H]1CCCN1)C(=O)N1C[C@H](O)C[C@H]1C(=O)NCC(=O)O", "note": "[PGEOG] (HELM PEPTIDE1{P.G.E.[Hyp].G}$$$$V2.0; N-terminus and C-terminus assumed)", "IC50": 857},
      {"molecule": "O=C(O)CC[C@H](NC(=O)CNC(=O)[C@@H]1CCCN1)C(=O)O", "note": "[PGE] (H-Pro-Gly-Glu-OH; N-terminus and C-terminus assumed)", "IC50": 927},
      {"molecule": "O=C(CNC(=O)[C@@H]1CCCN1)N[C@@H](Cc1c[nH]cn1)C(=O)N[C@@H](Cc1c[nH]cn1)C(=O)O", "note": "[PGHH]", "IC50": 1400},
      {"molecule": "NCCCC[C@H](NC(=O)CNC(=O)[C@@H]1CCCN1)C(=O)N1CCC[C@H]1C(=O)O", "note": "[PGKP] (H-PGKP-OH)", "IC50": 2570},
      {"molecule": "NCCCC[C@H](NC(=O)[C@@H]1CCCN1C(=O)CNC(=O)[C@@H]1CCCN1)C(=O)O", "note": "[PGPK] (H-PGPK-OH)", "IC50": 2790},
      {"molecule": "NC(=O)CC[C@H](NC(=O)[C@@H]1CCCN1C(=O)CNC(=O)[C@@H]1CCCN1)C(=O)O", "note": "[PGPQ] (H-PGPQ-OH)", "IC50": 3560},
      {"molecule": "NC(=O)CC[C@H](NC(=O)CNC(=O)[C@@H]1CCCN1)C(=O)N1CCC[C@H]1C(=O)O", "note": "[PGQP] (H-PGQP-OH)", "IC50": 2410},
      {"molecule": "O=C(O)CNC(=O)[C@@H]1CCCN1", "note": "[PG] (H-Pro-Gly-OH; N-terminus and C-terminus assumed)", "IC50": 3640},
      {"molecule": "CC(C)[C@H](N)C(=O)NCC(=O)N1CCC[C@H]1C(=O)N1C[C@H](O)C[C@H]1C(=O)NCC(=O)N1CCC[C@H]1C(=O)N[C@@H](C)C(=O)O", "note": "[VGPOGPA] (HELM PEPTIDE1{V.G.P.[Hyp].G.P.A}$$$$V2.0; N-terminus and C-terminus assumed)", "IC50": 2450}
    ]},
    {"tested_on": "not listed separately", "assay": "Thymus index and spleen index", "type": "in vivo, rat", "settings": "SD rats, oral, 65 μmol/kg bw, n = 6", "protocol": "(§1) After the rats were sacrificed, the thymuses and spleens were collected and weighed to obtain the thymus index (TI) and spleen index (SI). The TI and SI were calculated according to the following equation: TI/SI (mg/g) = (weight of thymus/spleen)/body weight.", "values": [
      {"molecule": "COC(=O)[C@H](c1ccccc1Cl)N1CCc2sccc2C1", "note": "[clopidogrel, Clopidogrel hydrogen sulfate, reference compound]", "thymus index (TI) and spleen index (SI) compared to vehicle group": "no significant difference"}
    ]},
    {"tested_on": "not listed separately", "assay": "Thymus index and spleen index", "type": "in vivo, rat", "settings": "SD rats, oral, 200 μmol/kg b.w., n = 6", "protocol": "as §1", "values": [
      {"molecule": "N[C@@H](CCC(=O)O)C(=O)N1C[C@H](O)C[C@H]1C(=O)NCC(=O)N[C@@H](CCC(=O)O)C(=O)O", "note": "[EOGE, Glu-Hyp-Gly-Glu] (HELM PEPTIDE1{E.[Hyp].G.E}$$$$V2.0)", "thymus index (TI) and spleen index (SI) compared to vehicle group": "no significant difference"}
    ]},
    {"tested_on": "not listed separately", "assay": "Thymus index and spleen index", "type": "in vivo, rat", "settings": "SD rats, oral, 300 μmol/kg b.w., n = 6", "protocol": "as §1", "values": [
      {"molecule": "N[C@@H](CCC(=O)O)C(=O)N1C[C@H](O)C[C@H]1C(=O)NCC(=O)N[C@@H](CCC(=O)O)C(=O)O", "note": "[EOGE, Glu-Hyp-Gly-Glu] (HELM PEPTIDE1{E.[Hyp].G.E}$$$$V2.0)", "thymus index (TI) and spleen index (SI) compared to vehicle group": "no significant difference"}
    ]},
    {"tested_on": "not listed separately", "assay": "Coagulation parameters (PT, APTT, TT) after oral administration", "type": "in vivo, rat", "settings": "SD rats, 65 μmol/kg bw, n = 6", "from_the_text": "(§2) The prothrombin time (PT), activated partial thromboplastin time (APTT), and thrombin time (TT) assay methods refer to our previous study. PT, APTT, and TT detection kits (Siemens, Shanghai, China) were employed for the determination of coagulation parameters according to the manufacturer’s instructions.", "values": [
      {"molecule": "COC(=O)[C@H](c1ccccc1Cl)N1CCc2sccc2C1", "note": "[clopidogrel, Clopidogrel hydrogen sulfate, reference compound]", "PT (prothrombin time)": "altered the TT and PT significantly", "TT (thrombin time)": "altered the TT and PT significantly"}
    ]},
    {"tested_on": "not listed separately", "assay": "Coagulation parameters (PT, APTT, TT) after oral administration", "type": "in vivo, rat", "settings": "SD rats, 200 μmol/kg b.w., n = 6", "from_the_text": "as §2", "values": [
      {"molecule": "N[C@@H](CCC(=O)O)C(=O)N1C[C@H](O)C[C@H]1C(=O)NCC(=O)N[C@@H](CCC(=O)O)C(=O)O", "note": "[EOGE, Glu-Hyp-Gly-Glu] (HELM PEPTIDE1{E.[Hyp].G.E}$$$$V2.0)", "coagulation parameters, including PT, TT, and APTT": "no significant effect"}
    ]},
    {"tested_on": "not listed separately", "assay": "Coagulation parameters (PT, APTT, TT) after oral administration", "type": "in vivo, rat", "settings": "SD rats, 300 μmol/kg b.w., n = 6", "from_the_text": "as §2", "values": [
      {"molecule": "N[C@@H](CCC(=O)O)C(=O)N1C[C@H](O)C[C@H]1C(=O)NCC(=O)N[C@@H](CCC(=O)O)C(=O)O", "note": "[EOGE, Glu-Hyp-Gly-Glu] (HELM PEPTIDE1{E.[Hyp].G.E}$$$$V2.0)", "coagulation parameters, including PT, TT, and APTT": "no significant effect"}
    ]},
    {"tested_on": "thrombus formation", "assay": "not given", "settings": "oral administration; cited from earlier work", "from_the_text": "Collagen is a natural source of bioactive peptides and widely distributed in skin and bone tissue, which has a unique triple-helix structure with a repeated amino acid sequence of (Gly-X-Y)n, in which X and Y are typically Pro and Hyp. Hyp-Gly-containing peptides are abundant in collagen, and a large quantity of these peptides could be released after hydrolysis.", "values": [
      {"molecule": "OGEFG [peptide identified from Salmo Salar skin in a previous study]", "thrombus formation in vivo": "attenuates thrombus formation without bleeding risks"}
    ]}
  ]
}
